Earlier results as cited in patent US9937184B2 (THEOCORP HOLDING COMPANY, LLC, priority 2013, dated 2018).

Columns and labels:
[1] = tested on: UMR 106-01 rat obsteoblast-like cells; conditions: prior art results (Kamagata-Kiyoura 1999)
[2] = in vivo

| Structure (SMILES) | proliferation of osteoblast-like cells (UMR 106-01) [1] | plasma half-life (t1/2) in the bloodstream [2] |
| --- | --- | --- |
| Cn1c(=O)c2c(ncn2C)n(C)c1=O [caffeine, 1,3,7-trimethylxanthine] | inhibits cell proliferation | – |
| Cn1cnc2c1c(=O)[nH]c(=O)n2C [Theobromine, 3,7-dimethyl-2,3,6,7-tetrahydro-1H-purine-2,6-dione] | – | six |
